Laboratory results published in patent US8987486B2, “Trans-2-decenoic acid derivative and pharmaceutical agent containing the same” (Nagoya Industrial Science Research Institute, priority 2010, dated 2015).

Assays:
[1] = test system: paclitaxel-induced peripheral nerve disorder rats; assay: von Frey test in paclitaxel-induced peripheral nerve disorder rats; type: in vivo; settings: Rattus norvegicus, ip; single intraperitoneal dose of 300 μ/kg; higher of the thresholds after 1 hour and 5 hours; normal threshold 15; read-out: Recovery rate of 50% reaction threshold value (%)
Method: The effect of the compound of the present invention was tested for a peripheral nerve disorder which is a side effect induced by the administration of paclitaxel (an anti-cancer agent) such as hyperesthesia including allodynia (severe pain induced by such tactile stimuli which usually cause no pain). The compound of the present invention was intraperitoneally administered to rats as a test drug to conduct a von Frey test.
Male SD rats of six weeks age (one group comprising six rats) were used as experimental animals and paclitaxel (2 mg/kg) was intraperitoneally administered every other day for four times in total to prepare paclitaxel-induced peripheral nerve disorder rats. During 18 and 25 days or during 20 to 27 days after initiation of paclitaxel administration, the test drug was intraperitoneally administered in a single dose of […] and the following von Frey test was conducted.
The rats of the above (1) were placed in a transparent acrylic cage with a wire-meshed floor and habituated for about three minutes and the 50% reaction threshold values to the mechanical stimulus of right hind limb were measured before administration of the test drug and after 1, 5 and 24 hours from initiation of the administration.
The measurement was conducted using von Frey filaments (manufactured by North Coast Medical Inc.) in accordance with the methods of Chaplan, et al. (Journal of Neuroscience Methods, vol. 53, no. 1, pages 55 to 63, 1994) and Dixon, et al. (Annual Review of Pharmacology and Toxicology, vol. 20, pages 441 to 462, 1980). […] The case where the rat escaped at the instance of removing the filament was also called positive. When the positive reaction was noted, stimulus was conducted similarly using a filament of one rank weaker while, when no reaction was noted, stimulus was conducted similarly using a filament of one rank stronger and the point when the reaction changed from negative to positive or from positive to negative was called the first two reactions. After that, stimulus was conducted for continuous four times by the same up-down method. A 50% reaction threshold value to the mechanical stimulus was measured using the reaction to the six stimuli in total and then (mean value)±(standard error) for each group was calculated. Incidentally, when stimulus reached by that of 15.0 g without positive reaction or, when positive reaction continued to 0.4 g, then 15.0 g or 0.25 g was adopted as each threshold value, respectively. With regard to the higher 50% reaction threshold value between the 50% threshold values after 1 hour and 5 hours from administration of a test drug, a recovery rate (%) of the 50% reaction threshold value was calculated by the following expression in which 15 was adopted as the normal threshold value. Recovery rate (%) of 50% reaction threshold value=[(50% reaction threshold value after 1 hour or 5 hours from administration of test drug)−(50% reaction threshold value before administration of test drug)]/[(Normal threshold value)−(50% reaction threshold value before administration of test drug)]

PC12 cells = assay: Evaluation using PC12 cells; immunostaining method for MAPK phosphorylation; type: cell-based; settings: 30 minutes
Method: PC12 cells were stimulated using the compound of the present invention and the phosphorylation of MAPK was evaluated by means of immunostaining of the cells. The specific operation procedure is as follows.
A cover glass was placed on a 24-well plate followed by coating with poly-L-lysine. PC12 cells were seeded in a cell density of 50,000 cells/well. (The amount of the medium was 400 μL) On the first day after seeding the cells, the medium was exchanged to DMEM containing 1% fetal bovine serum (FBS) and 0.06% L-glutamine.
The compound which was previously diluted with DMSO was dissolved in 100 μl of medium. After 12 to 16 hours from the medium exchange, 100 μl out of 400 μl of the medium was removed from each well and, in place of that, 100 μl of a medium containing the compound was added.
After 30 minutes from the addition, fixation was conducted using 4% paraformaldehyde (PFA) for 10 minutes. The fixed cells were washed with a Tris-buffered saline (TBS) and a TBS containing 0.3% Triton X was added thereto followed by incubating at 37° C. for 30 minutes. This was washed with a TBS and blocked with a TBS containing 3% skim milk for 30 minutes (at room temperature).
This was washed with a TBS for one time and a primary antibody (anti-phospho-p42/44 MAPK antibody; cell signalings; #9102 being diluted with TBS to an extent of 1,000-fold) was added thereto followed by subjecting to the reaction at 4° C. for one night. The primary antibody was removed and washed with a TBS for three times. After that, the secondary antibody (Alexa 488 goat anti-rabbit antibody; Invitrogen: being diluted to an extent of 1,000-fold using a TBS containing 1% Block Ace) was added thereto and the reaction was conducted at room temperature for 3 hours. The secondary antibody was removed and, after washing with a TBS, fixation was conducted with 4% PFA for 1 hour.
This was washed with a TBS, Hoechst (diluted with a TBS to an extent of 2000-fold) was added thereto and nuclear staining was conducted. This was washed and mounted.
Taking the photographic pictures and counting the positive cells were conducted as follows. An all-in-one microscope (manufactured by Keyence) was used, exposing time for pMAPK (green) was made 1/2.8 s, the place was appropriately decided in a Hoechst-stained image and the pictures were taken. Four pictures per one glass sheet were taken.
Photoshop (Adobe) was used and the cells having above a certain luminance were judged to be positive. All cells were labeled using Hoechst 33342 manufactured by Invitrogen and the rate of pMAPK-positive cells in Hoechst-positive cells was calculated. (cf. Table 7)

Structure (SMILES)	inhibition in vivo at 0.3 mg/kg [1] [%]	also measured
CCCCCCC/C=C/C(=O)N(CC)CCCCCCC [Compound 35, (E)-N-ethyl-N-heptyl dec-2-enamide]	47.1	
CCCCCCC/C=C/C(=O)N(C)CCN(C)C [Compound 42, (E)-N-(2-(dimethylamino)ethyl)-N-methyl dec-2-enamide]	48.7	Rate of pMAPK-positive cells (%) (PC12 cells; 62.5 μg/mL): 6%; Rate of pMAPK-positive cells (%) (PC12 cells; 125 μg/mL): 7%; Rate of pMAPK-positive cells (%) (PC12 cells; 250 μg/mL): 27%
CCCCCCC/C=C/C(=O)N(CC)CCN(CC)CC [Compound 44, (E)-N-(2-(diethylamino)ethyl)-N-ethyl dec-2-enamide]	62.6	Rate of pMAPK-positive cells (%) (PC12 cells; 62.5 μg/mL): 17%; Rate of pMAPK-positive cells (%) (PC12 cells; 125 μg/mL): 7%; Rate of pMAPK-positive cells (%) (PC12 cells; 250 μg/mL): 18%
CCCCCCC/C=C/C(=O)OCCSC(C)C [Compound 8, (E)-2-(isopropylthio)ethyl dec-2-enoate]	32.2	
CCCCCCC/C=C/C(=O)OCCOC [Compound 9, (E)-2-methoxyethyl dec-2-enoate]	51.4	
CCCCCCC/C=C/C(=O)OCCOCCN(C)C [Compound 12, (E)-2-(2-(dimethylamino)ethoxy)ethyl dec-2-enoate]		Rate of pMAPK-positive cells (%) (PC12 cells; 62.5 μg/mL): 11%; Rate of pMAPK-positive cells (%) (PC12 cells; 125 μg/mL): 17%; Rate of pMAPK-positive cells (%) (PC12 cells; 250 μg/mL): 9%; Rate of pMAPK-positive cells (%) (PC12 cells; 500 μg/mL): 29%
CCCCCCC/C=C/C(=O)OC(COCC)COCC [Compound 11, (E)-1,3-diethoxy-2-propyl dec-2-enoate]	37.6	
CCCCCCC/C=C/C(=O)N(CCCCC)CCCCC [Compound 33, (E)-N,N-dipentyl dec-2-enamide]	45.3	
CCCCCCC/C=C/C(=O)SCCCCCCCCCC [Compound 52, (E)-S-decyl dec-2-enethioate]	18.7	
CCCCCCC/C=C/C(=O)NCCCN(CC)CC [Compound 39, (E)-N-3-(diethylamino)propyl dec-2-enamide]	49.7	
CCCCCCC/C=C/C(=O)SCCC(C)C [Compound 49, (E)-S-isopentyl dec-2-enethioate]	69.3	
CCCCCCC/C=C/C(=O)OC(C)CN(C)C (stereo not drawn) [Compound 3, (E)-1-(dimethylamino)propan-2-yl dec-2-enoate]		Rate of pMAPK-positive cells (%) (PC12 cells; 62.5 μg/mL): 0%; Rate of pMAPK-positive cells (%) (PC12 cells; 125 μg/mL): 12%; Rate of pMAPK-positive cells (%) (PC12 cells; 250 μg/mL): 14%; Rate of pMAPK-positive cells (%) (PC12 cells; 500 μg/mL): 14%
CCCCCCC/C=C/C(=O)NCCN(C(C)C)C(C)C [Compound 40, (E)-N-2-(diisopropylamino)ethyl dec-2-enamide]	71.5	
CCCCCCC/C=C/C(=O)NCC(C)C [Compound 18, (E)-N-isobutyl dec-2-enamide]	54.6	
CCCCCCC/C=C/C(=O)NC(CC)CCCCC (stereo not drawn) [Compound 25, (E)-N-(octan-3-yl) dec-2-enamide]	33.7	
CCCCCCC/C=C/C(=O)NCCCC [Compound 17, (E)-N-butyl dec-2-enamide]	52.6	
CCCCCCC/C=C/C(=O)SCCc1ccccc1 [Compound 54, (E)-S-phenethyl dec-2-enethioate]	51.9	
CCCCCCC/C=C/C(=O)NCCCCC [Compound 19, (E)-N-pentyl dec-2-enamide]	73.7	
CCCCCCC/C=C/C(=O)NC(C)(C)CC [Compound 21, (E)-N-tert-pentyl dec-2-enamide]	63.2	
CCCCCCC/C=C/C(=O)N(CCCCCC)CCCCCC [Compound 34, (E)-N,N-dihexyl dec-2-enamide]	48.3	

Structure (SMILES)	inhibition in vivo at 0.3 mg/kg [1] [%]	also measured
CCCCCCC/C=C/C(=O)SC1CCCC1 [Compound 53, (E)-S-cyclopentyl dec-2-enethioate]	34.9	
CCCCCCC/C=C/C(=O)NCCN(CCCC)CCCC [Compound 41, (E)-N-2-(dibutylamino)ethyl dec-2-enamide]	28.3	
CCCCCCC/C=C/C(=O)Nc1ccccc1 [Compound 28, (E)-N-phenyl dec-2-enamide]	19.4	
CCCCCCC/C=C/C(=O)NC(C)(C)CC(C)(C)C [Compound 26, (E)-N-(2,4,4-trimethylpentan-2-yl) dec-2-enamide]	55.7	
CCCCCCC/C=C/C(=O)N(CCCC)CCCC [Compound 32, (E)-N,N-dibutyl dec-2-enamide]	70.6	
CCCCCCC/C=C/C(=O)NCCCCCCC [Compound 23, (E)-N-heptyl dec-2-enamide]	28.6	
CCCCCCC/C=C/C(=O)SCCCCC [Compound 48, (E)-S-pentyl dec-2-enethioate]	50.7	
CCCCCCC/C=C/C(=O)OCC(C)(C)CN(C)C [Compound 5, (E)-3-(dimethylamino)-2,2-dimethylpropyl dec-2-enoate]		Rate of pMAPK-positive cells (%) (PC12 cells; 62.5 μg/mL): 1%; Rate of pMAPK-positive cells (%) (PC12 cells; 125 μg/mL): 23%; Rate of pMAPK-positive cells (%) (PC12 cells; 250 μg/mL): 0%; Rate of pMAPK-positive cells (%) (PC12 cells; 500 μg/mL): 24%
CCCCCCC/C=C/C(=O)NCCC(C)C [Compound 20, (E)-N-isopentyl dec-2-enamide]	42.5	
CCCCCCC/C=C/C(=O)NC [Compound 15, (E)-N-methyl dec-2-enamide]	37.7	
CCCCCCC/C=C/C(=O)NCC [Compound 16, (E)-N-ethyl dec-2-enamide]	59.7	
CCCCCCC/C=C/C(=O)SCCCCCC [Compound 50, (E)-S-hexyl dec-2-enethioate]	51.7	
CCCCCCC/C=C/C(=O)NCCCN(C)C [Compound 38, (E)-N-3-(dimethylamino)propyl dec-2-enamide]	52.1	
CCCCCCC/C=C/C(=O)NCCc1ccccc1 [Compound 29, (E)-N-phenethyl dec-2-enamide]	46.3	
CCCCCCC/C=C/C(=O)SCCCCCCC [Compound 51, (E)-S-heptyl dec-2-enethioate]	45.7	
CCCCCCC/C=C/C(=O)NC(CCC)CCC [Compound 24, (E)-N-(heptan-4-yl) dec-2-enamide]	56.1	
CCCCCCC/C=C/C(=O)NC1CCCCC1 [Compound 27, (E)-N-cyclohexyl dec-2-enamide]	46.4	
CCCCCCC/C=C/C(=O)OCCOCC [Compound 10, (E)-2-ethoxyethyl dec-2-enoate]	26.4	
CCCCCCC/C=C/C(=O)NCCCCCC [Compound 22, (E)-N-hexyl dec-2-enamide]	64.6	
